Reference: PubChem BioAssay (NCI)
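Step 1: Grow cells in 96-well plates. Step 2: Expose to compound for 48 hours at 5 concentrations. Step 3: Interpolate endpoints linearly; if unreached, use highest concentration. TGI denotes the concentration required for complete inhibition of growth.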

Legend:
Assay in all cases: growth of human tumour cells (NCI), 48 h
UACC-62 melanoma = tested on: UACC-62 melanoma
TK-10 renal = tested on: TK-10 renal
A498 renal = tested on: A498 renal
SF-539 CNS = tested on: SF-539 CNS
UO-31 renal = tested on: UO-31 renal
HOP-92 NSCLC = tested on: HOP-92 NSCLC
CAKI-1 renal = tested on: CAKI-1 renal
SR leukemia = tested on: SR leukemia
SK-OV-3 ovarian = tested on: SK-OV-3 ovarian
HCC-2998 colon = tested on: HCC-2998 colon
HL-60(TB) leukemia = tested on: HL-60(TB) leukemia
OVCAR-5 ovarian = tested on: OVCAR-5 ovarian
SK-MEL-5 melanoma = tested on: SK-MEL-5 melanoma
HS 578T breast = tested on: HS 578T breast
IGROV1 ovarian = tested on: IGROV1 ovarian
PC-3 prostate = tested on: PC-3 prostate
MDA-MB-435 = tested on: MDA-MB-435
UACC-257 melanoma = tested on: UACC-257 melanoma
OVCAR-3 ovarian = tested on: OVCAR-3 ovarian
COLO 205 colon = tested on: COLO 205 colon
SNB-19 CNS = tested on: SNB-19 CNS
MDA-N = tested on: MDA-N
CCRF-CEM leukemia = tested on: CCRF-CEM leukemia
NCI/ADR-RES ovarian = tested on: NCI/ADR-RES ovarian
SF-295 CNS = tested on: SF-295 CNS
SF-268 CNS = tested on: SF-268 CNS
U251 CNS = tested on: U251 CNS
ACHN renal = tested on: ACHN renal
M14 melanoma = tested on: M14 melanoma
HOP-62 NSCLC = tested on: HOP-62 NSCLC
LOX IMVI melanoma = tested on: LOX IMVI melanoma
HT29 colon = tested on: HT29 colon
NCI-H460 lung = tested on: NCI-H460 lung
OVCAR-8 ovarian = tested on: OVCAR-8 ovarian
HCT-116 colon = tested on: HCT-116 colon
KM12 colon = tested on: KM12 colon
MCF7 breast = tested on: MCF7 breast
OVCAR-4 ovarian = tested on: OVCAR-4 ovarian
MALME-3M melanoma = tested on: MALME-3M melanoma
NCI-H522 lung = tested on: NCI-H522 lung
786-0 renal = tested on: 786-0 renal
RXF 393 renal = tested on: RXF 393 renal
HCT-15 colon = tested on: HCT-15 colon
SK-MEL-2 melanoma = tested on: SK-MEL-2 melanoma
NCI-H23 lung = tested on: NCI-H23 lung
MDA-MB-231 breast = tested on: MDA-MB-231 breast
SNB-75 CNS = tested on: SNB-75 CNS
A549 NSCLC = tested on: A549 NSCLC
RPMI-8226 leukemia = tested on: RPMI-8226 leukemia
K-562 leukemia = tested on: K-562 leukemia
SW-620 colon = tested on: SW-620 colon
T-47D breast = tested on: T-47D breast
MOLT-4 leukemia = tested on: MOLT-4 leukemia
SN12C renal = tested on: SN12C renal
SK-MEL-28 melanoma = tested on: SK-MEL-28 melanoma
EKVX NSCLC = tested on: EKVX NSCLC
NCI-H226 lung = tested on: NCI-H226 lung
DU-145 prostate = tested on: DU-145 prostate

Work on `CC(C)CC(NC(=O)C(Cc1ccccc1)NC(=O)[C@H]1CC[C@H](NC(=O)C(Cc2ccc(OC(C)(C)C)cc2)NC(=O)OC(C)(C)C)C1)C(N)=O` (some centres undefined) yielded a TGI (UACC-62 melanoma) of 41.8 µM, a TGI (TK-10 renal) of 86.9 µM and a TGI (A498 renal) greater than 100 µM. It also gave a TGI (SF-539 CNS) of 42.6 µM, a TGI (UO-31 renal) greater than 100 µM and a TGI (HOP-92 NSCLC) of 59 µM. The TGI (CAKI-1 renal) was greater than 100 µM, the TGI (SR leukemia) was greater than 100 µM and the TGI (SK-OV-3 ovarian) was greater than 100 µM. It also gave a TGI (HCC-2998 colon) of 27.5 µM, a TGI (HL-60(TB) leukemia) greater than 100 µM and a TGI (OVCAR-5 ovarian) greater than 100 µM. For the same molecule, the TGI (SK-MEL-5 melanoma) was 20.1 µM, the TGI (HS 578T breast) was 35.8 µM and the TGI (IGROV1 ovarian) was 77.8 µM. It also gave a TGI (PC-3 prostate) of 59.3 µM, a TGI (MDA-MB-435) of 41.2 µM and a TGI (UACC-257 melanoma) of 37 µM. It also gave a TGI (OVCAR-3 ovarian) of 58 µM, a TGI (COLO 205 colon) of 35.8 µM and a TGI (SNB-19 CNS) of 53.9 µM. The TGI (MDA-N) was 41.1 µM, the TGI (CCRF-CEM leukemia) was 43.3 µM and the TGI (NCI/ADR-RES ovarian) was greater than 100 µM. The TGI (SF-295 CNS) was 83.5 µM, the TGI (SF-268 CNS) was greater than 100 µM and the TGI (U251 CNS) was 28.6 µM. The TGI (ACHN renal) was greater than 100 µM, the TGI (M14 melanoma) was 33.7 µM and the TGI (HOP-62 NSCLC) was greater than 100 µM. For the same molecule, the TGI (LOX IMVI melanoma) was 35.1 µM, the TGI (HT29 colon) was 46.2 µM and the TGI (NCI-H460 lung) was 39.7 µM. The TGI (OVCAR-8 ovarian) was 36 µM, the TGI (HCT-116 colon) was 28.2 µM and the TGI (KM12 colon) was 44.1 µM. It also gave a TGI (MCF7 breast) of 31.9 µM, a TGI (OVCAR-4 ovarian) greater than 100 µM and a TGI (MALME-3M melanoma) of 61 µM. The TGI (NCI-H522 lung) was 33.7 µM, the TGI (786-0 renal) was greater than 100 µM and the TGI (RXF 393 renal) was greater than 100 µM. For the same molecule, the TGI (HCT-15 colon) was 48.9 µM, the TGI (SK-MEL-2 melanoma) was 34.8 µM and the TGI (NCI-H23 lung) was 31.4 µM. For the same molecule, the TGI (MDA-MB-231 breast) was 97 µM, the TGI (SNB-75 CNS) was greater than 100 µM and the TGI (A549 NSCLC) was greater than 100 µM. The TGI (RPMI-8226 leukemia) was greater than 100 µM, the TGI (K-562 leukemia) was 47.9 µM and the TGI (SW-620 colon) was 94.3 µM. For the same molecule, the TGI (T-47D breast) was 46.9 µM, the TGI (MOLT-4 leukemia) was 53.6 µM and the TGI (SN12C renal) was 31.5 µM. The TGI (SK-MEL-28 melanoma) was 51.5 µM, the TGI (EKVX NSCLC) was greater than 100 µM and the TGI (NCI-H226 lung) was 45.2 µM.
For `Oc1ccc[n+](Cc2ccccc2)c1`, the TGI (UACC-62 melanoma) was greater than 100 µM, the TGI (TK-10 renal) was greater than 100 µM and the TGI (A498 renal) was greater than 100 µM. For the same molecule, the TGI (SF-539 CNS) was greater than 100 µM, the TGI (UO-31 renal) was greater than 100 µM and the TGI (CAKI-1 renal) was greater than 100 µM. For the same molecule, the TGI (SK-OV-3 ovarian) was greater than 100 µM, the TGI (HCC-2998 colon) was greater than 100 µM and the TGI (HL-60(TB) leukemia) was greater than 100 µM. It also gave a TGI (DU-145 prostate) greater than 100 µM, a TGI (OVCAR-5 ovarian) greater than 100 µM and a TGI (SK-MEL-5 melanoma) greater than 100 µM. For the same molecule, the TGI (HS 578T breast) was greater than 100 µM, the TGI (PC-3 prostate) was greater than 100 µM and the TGI (MDA-MB-435) was greater than 100 µM. It also gave a TGI (UACC-257 melanoma) greater than 100 µM, a TGI (OVCAR-3 ovarian) greater than 100 µM and a TGI (COLO 205 colon) greater than 100 µM. The TGI (SNB-19 CNS) was greater than 100 µM, the TGI (MDA-N) was greater than 100 µM and the TGI (CCRF-CEM leukemia) was greater than 100 µM. For the same molecule, the TGI (NCI/ADR-RES ovarian) was greater than 100 µM, the TGI (SF-295 CNS) was greater than 100 µM and the TGI (SF-268 CNS) was greater than 100 µM. For the same molecule, the TGI (U251 CNS) was greater than 100 µM, the TGI (ACHN renal) was greater than 100 µM and the TGI (M14 melanoma) was greater than 100 µM. For the same molecule, the TGI (HOP-62 NSCLC) was greater than 100 µM, the TGI (LOX IMVI melanoma) was greater than 100 µM and the TGI (HT29 colon) was greater than 100 µM. For the same molecule, the TGI (NCI-H460 lung) was greater than 100 µM, the TGI (OVCAR-8 ovarian) was greater than 100 µM and the TGI (HCT-116 colon) was greater than 100 µM. For the same molecule, the TGI (KM12 colon) was greater than 100 µM, the TGI (MCF7 breast) was greater than 100 µM and the TGI (MALME-3M melanoma) was greater than 100 µM. For the same molecule, the TGI (NCI-H522 lung) was greater than 100 µM, the TGI (786-0 renal) was greater than 100 µM and the TGI (RXF 393 renal) was greater than 100 µM. For the same molecule, the TGI (HCT-15 colon) was greater than 100 µM, the TGI (SK-MEL-2 melanoma) was greater than 100 µM and the TGI (NCI-H23 lung) was greater than 100 µM. For the same molecule, the TGI (MDA-MB-231 breast) was greater than 100 µM, the TGI (SNB-75 CNS) was greater than 100 µM and the TGI (A549 NSCLC) was greater than 100 µM. It also gave a TGI (RPMI-8226 leukemia) greater than 100 µM, a TGI (K-562 leukemia) greater than 100 µM and a TGI (T-47D breast) greater than 100 µM. The TGI (MOLT-4 leukemia) was greater than 100 µM, the TGI (SN12C renal) was greater than 100 µM and the TGI (SK-MEL-28 melanoma) was greater than 100 µM. It also gave a TGI (NCI-H226 lung) greater than 100 µM.
